Source: PubChem BioAssay (NCI)
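Method: 48-hour compound exposure of cells in 96-well plates, five concentrations, linear interpolation of endpoints. The concentration for full growth arrest is given as TGI.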

What was measured:
Assay in all cases: growth of human tumour cells (NCI), 48 h
[1] = test system: KM12 colon
[2] = test system: NCI-H460 lung
[3] = test system: SF-539 CNS
[4] = test system: SK-MEL-2 melanoma
[5] = test system: SK-MEL-5 melanoma
[6] = test system: NCI-H226 lung
[7] = test system: EKVX NSCLC
[8] = test system: HOP-92 NSCLC
[9] = test system: RPMI-8226 leukemia
[10] = test system: NCI-H522 lung
[11] = test system: T-47D breast

| Compound | TGI [1] | TGI [2] | TGI [3] | TGI [4] | TGI [5] | TGI [6] | TGI [7] | TGI [8] | TGI [9] | TGI [10] | TGI [11] |
| --- | --- | --- | --- | --- | --- | --- | --- | --- | --- | --- | --- |
| CCCc1c(C(=O)OCC)[nH]c(-c2ccc(-c3[nH]c(C(=O)OCC)c(CCC)c3C(=O)OCC)s2)c1C(=O)OCC | > 100 µM | > 100 µM | > 100 µM | 57.2 µM | > 100 µM | > 100 µM | > 100 µM | 85.2 µM | > 100 µM | > 100 µM | – |
| CN1CN(c2ccccc2)C2(CCN(CCCCCCF)CC2)C1=O | > 100 µM | – | 92.4 µM | – | > 100 µM | > 100 µM | > 100 µM | – | > 100 µM | > 100 µM | > 100 µM |
| CN(C)c1ccc(/C=C/C(=O)N[C@@H]2C(=O)N3[C@@H]2SC(C)(C)[C@@H]3C(=O)O)cc1 | > 100 µM | > 100 µM | > 100 µM | > 100 µM | > 100 µM | > 100 µM | > 100 µM | – | > 100 µM | > 100 µM | > 100 µM |
| CC(=O)NNc1nc(C)c(C(=O)NNC(=O)C(=O)Nc2cccc(C(C)=O)c2)s1 | 57.7 µM | 33.2 µM | 39.8 µM | > 100 µM | > 100 µM | 62 µM | > 100 µM | 90 µM | > 100 µM | 28.9 µM | – |
| C[S+](C)CC1OC(n2cnc3c(N)ncnc32)C(O)C1O (configuration not stated) | > 225 µM | > 225 µM | > 225 µM | > 225 µM | > 225 µM | > 225 µM | > 225 µM | > 225 µM | > 225 µM | > 225 µM | – |
| CN(C(=O)c1ccc2c(c1)sc1c(=O)n(C)c3ccccc3c12)c1ccccc1 | > 100 µM | > 100 µM | > 100 µM | > 100 µM | > 100 µM | > 100 µM | > 100 µM | > 100 µM | – | > 100 µM | > 100 µM |
| CN1N=C(c2ccncc2)OC1c1cccc(C(F)(F)F)c1 (configuration not stated) | > 100 µM | > 100 µM | 65.8 µM | > 100 µM | > 100 µM | > 100 µM | > 100 µM | – | > 100 µM | > 100 µM | > 100 µM |
| COc1ccc2c(c1)OCCc1cn[nH]c1-2 | > 100 µM | > 100 µM | > 100 µM | > 100 µM | > 100 µM | – | 12.3 µM | 61.6 µM | – | > 100 µM | – |
| CN(C)CCNC(=O)c1cccc2cc3cc(O)ccc3nc12 | 10.4 µM | 2.16 µM | 4.23 µM | 3.81 µM | 2.48 µM | 2.48 µM | 5.24 µM | 3.81 µM | 5.46 µM | – | – |
| Cc1cccc2nc3c(=O)[nH]c(=O)nc-3n(C)c12 | > 100 µM | > 100 µM | > 100 µM | > 100 µM | > 100 µM | > 100 µM | > 100 µM | – | 95.4 µM | 87.4 µM | > 100 µM |
| COC(=O)[C@@](C)(COC(=O)C(C)(C)C)NC(=O)OC(C)(C)C | > 100 µM | > 100 µM | > 100 µM | > 100 µM | > 100 µM | > 100 µM | > 100 µM | – | > 100 µM | > 100 µM | > 100 µM |
| [O-][n+]1c(CN2CCCCC2)nc2cccc3c2c1-c1ccccc1-3 | > 100 µM | 46 µM | 88.4 µM | 43.7 µM | 32.1 µM | 39.8 µM | 49.2 µM | 85.6 µM | > 100 µM | – | – |
| CC(C)OP(=O)(OC(C)C)C1=NN(c2ccc([N+](=O)[O-])cc2)C(P(=O)(OC(C)C)OC(C)C)=NN1c1ccc([N+](=O)[O-])cc1 | > 100 µM | > 100 µM | > 100 µM | > 100 µM | > 100 µM | > 100 µM | > 100 µM | > 100 µM | > 100 µM | > 100 µM | – |
| CS(=O)(=O)c1nc(-c2cc3c(c(S(C)(=O)=O)n2)CCC3)cc2c1CCCC2 | > 100 µM | – | > 100 µM | 59.3 µM | > 100 µM | > 100 µM | > 100 µM | – | > 100 µM | 45.9 µM | – |
| O=c1c2ccccc2nc(-c2ccccc2)n1NC(=S)Nc1ccc(Cl)cc1 | > 100 µM | > 100 µM | > 100 µM | > 100 µM | > 100 µM | > 100 µM | – | > 100 µM | > 100 µM | > 100 µM | – |
| O=C1Nc2cc([N+](=O)[O-])c(Br)cc2C1=O | > 100 µM | > 100 µM | 41 µM | 71.9 µM | 60.7 µM | 76.4 µM | 47.4 µM | 43.1 µM | 43.3 µM | 30.3 µM | – |
| COC(=O)C(=O)C(C(=O)C(=O)Nc1cccc([N+](=O)[O-])c1)c1nc2ccc(Cl)cc2[nH]c1=O (configuration not stated) | > 100 µM | > 100 µM | > 100 µM | > 100 µM | > 100 µM | > 100 µM | > 100 µM | > 100 µM | – | > 100 µM | – |
| CCOC(=O)C(C)Sc1nnc(COc2ccccc2OC)n1-c1ccccc1 (configuration not stated) | > 100 µM | 32.2 µM | > 100 µM | > 100 µM | > 100 µM | > 100 µM | > 100 µM | > 100 µM | 59.9 µM | > 100 µM | – |
| CC(C)(C)C(=O)OCC1OC(N=[N+]=[N-])C(OC(=O)C(C)(C)C)C(OC(=O)C(C)(C)C)C1OC(=O)C(C)(C)C (configuration not stated) | > 100 µM | > 100 µM | > 100 µM | > 100 µM | > 100 µM | – | > 100 µM | > 100 µM | > 100 µM | > 100 µM | – |
| COc1ccc2nc3c(c(NCCCN(C)C)c2c1)CCCC3 | 33 µM | 24.3 µM | 30.8 µM | 37.1 µM | 29.2 µM | 30.7 µM | 40.5 µM | 21.1 µM | 27.2 µM | 31.3 µM | – |
| COC(=O)CCc1c(Cc2ccc[nH]2)[nH]c(C(=O)OCc2ccccc2)c1C | 35.7 µM | > 100 µM | 37.5 µM | 33.7 µM | 29.2 µM | 35.4 µM | 91.3 µM | 51.4 µM | 76.5 µM | 54.4 µM | – |
| O=C(O)CC[P+](c1ccccc1)(c1ccccc1)c1ccccc1 | > 100 µM | – | – | 81.8 µM | 42.2 µM | > 100 µM | > 100 µM | – | 19.9 µM | > 100 µM | > 100 µM |
